Positions of bridges follow the written chain, without caps; N, C: chain ends. Residues, ends and D or L forms follow the SMILES beside them.
What was measured:
Test in all cases: cell-based
[1] = molecular target: hNav1.5 (Homo sapiens, UniProt Q14524); settings: IonWorks Quattro, use-dependent block, hNav1.5; read-out: IWQ Use Nav1.5
[2] = molecular target: hNav1.3 (Homo sapiens, UniProt Q9NY46); settings: IonWorks Quattro, use-dependent block, hNav1.3; read-out: IWQ Use Nav1.3
[3] = molecular target: hNav1.7 (Homo sapiens, UniProt Q15858); type: cell-based; settings: IonWorks Quattro, use-dependent block, hNav1.7; read-out: IWQ Use Nav1.7
Sequence of hNav1.7 (Q15858 whole entry, looked up): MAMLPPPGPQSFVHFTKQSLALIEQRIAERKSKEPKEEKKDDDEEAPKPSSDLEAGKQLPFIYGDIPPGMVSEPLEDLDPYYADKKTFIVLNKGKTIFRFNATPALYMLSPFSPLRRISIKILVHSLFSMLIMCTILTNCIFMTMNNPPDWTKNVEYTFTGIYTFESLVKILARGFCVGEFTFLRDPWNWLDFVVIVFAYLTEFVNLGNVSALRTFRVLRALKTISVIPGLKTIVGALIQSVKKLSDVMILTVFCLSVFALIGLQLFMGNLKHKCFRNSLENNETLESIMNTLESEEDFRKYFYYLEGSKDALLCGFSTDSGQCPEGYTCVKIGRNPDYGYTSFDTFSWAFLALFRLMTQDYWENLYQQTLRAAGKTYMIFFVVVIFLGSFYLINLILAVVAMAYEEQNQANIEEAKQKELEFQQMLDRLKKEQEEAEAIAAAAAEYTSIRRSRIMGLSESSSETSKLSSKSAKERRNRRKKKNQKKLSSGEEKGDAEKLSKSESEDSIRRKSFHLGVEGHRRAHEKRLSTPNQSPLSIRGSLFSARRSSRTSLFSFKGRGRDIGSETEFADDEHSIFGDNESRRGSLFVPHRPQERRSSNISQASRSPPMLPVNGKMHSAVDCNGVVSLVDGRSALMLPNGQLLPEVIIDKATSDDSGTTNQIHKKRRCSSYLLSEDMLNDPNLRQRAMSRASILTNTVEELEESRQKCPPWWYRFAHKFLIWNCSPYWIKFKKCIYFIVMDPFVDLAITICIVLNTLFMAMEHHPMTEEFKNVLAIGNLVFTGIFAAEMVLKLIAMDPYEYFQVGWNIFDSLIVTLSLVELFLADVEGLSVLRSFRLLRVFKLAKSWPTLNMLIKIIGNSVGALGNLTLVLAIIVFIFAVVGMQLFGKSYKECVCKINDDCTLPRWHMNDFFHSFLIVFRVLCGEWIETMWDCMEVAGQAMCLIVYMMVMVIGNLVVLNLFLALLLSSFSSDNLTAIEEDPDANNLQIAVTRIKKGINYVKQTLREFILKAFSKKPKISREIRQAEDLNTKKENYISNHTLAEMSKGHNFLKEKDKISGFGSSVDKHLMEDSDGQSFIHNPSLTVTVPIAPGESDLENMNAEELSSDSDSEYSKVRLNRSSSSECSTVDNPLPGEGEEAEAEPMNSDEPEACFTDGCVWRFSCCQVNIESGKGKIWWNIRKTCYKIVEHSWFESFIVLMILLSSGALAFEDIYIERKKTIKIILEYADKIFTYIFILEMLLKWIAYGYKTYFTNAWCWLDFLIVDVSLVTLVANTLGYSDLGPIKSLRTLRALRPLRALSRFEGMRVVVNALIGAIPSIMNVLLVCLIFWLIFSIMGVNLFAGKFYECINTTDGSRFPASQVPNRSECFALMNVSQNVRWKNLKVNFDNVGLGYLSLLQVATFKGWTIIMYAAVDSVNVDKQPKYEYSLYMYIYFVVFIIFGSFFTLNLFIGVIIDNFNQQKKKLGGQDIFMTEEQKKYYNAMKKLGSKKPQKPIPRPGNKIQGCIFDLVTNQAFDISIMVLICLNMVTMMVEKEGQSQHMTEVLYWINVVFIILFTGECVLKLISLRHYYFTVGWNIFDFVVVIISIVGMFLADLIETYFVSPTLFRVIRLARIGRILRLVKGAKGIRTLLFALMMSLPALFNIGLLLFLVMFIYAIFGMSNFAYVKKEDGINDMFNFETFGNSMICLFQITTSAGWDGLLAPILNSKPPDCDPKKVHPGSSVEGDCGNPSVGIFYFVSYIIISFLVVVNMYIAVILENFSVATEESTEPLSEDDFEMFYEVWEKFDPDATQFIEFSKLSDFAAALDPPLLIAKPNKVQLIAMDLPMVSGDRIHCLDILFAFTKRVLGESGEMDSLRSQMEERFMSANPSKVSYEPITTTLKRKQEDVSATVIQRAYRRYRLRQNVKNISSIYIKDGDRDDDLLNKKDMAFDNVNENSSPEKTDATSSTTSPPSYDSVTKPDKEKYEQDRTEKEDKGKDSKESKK

Sequence of hNav1.5 (Q14524 whole entry, looked up): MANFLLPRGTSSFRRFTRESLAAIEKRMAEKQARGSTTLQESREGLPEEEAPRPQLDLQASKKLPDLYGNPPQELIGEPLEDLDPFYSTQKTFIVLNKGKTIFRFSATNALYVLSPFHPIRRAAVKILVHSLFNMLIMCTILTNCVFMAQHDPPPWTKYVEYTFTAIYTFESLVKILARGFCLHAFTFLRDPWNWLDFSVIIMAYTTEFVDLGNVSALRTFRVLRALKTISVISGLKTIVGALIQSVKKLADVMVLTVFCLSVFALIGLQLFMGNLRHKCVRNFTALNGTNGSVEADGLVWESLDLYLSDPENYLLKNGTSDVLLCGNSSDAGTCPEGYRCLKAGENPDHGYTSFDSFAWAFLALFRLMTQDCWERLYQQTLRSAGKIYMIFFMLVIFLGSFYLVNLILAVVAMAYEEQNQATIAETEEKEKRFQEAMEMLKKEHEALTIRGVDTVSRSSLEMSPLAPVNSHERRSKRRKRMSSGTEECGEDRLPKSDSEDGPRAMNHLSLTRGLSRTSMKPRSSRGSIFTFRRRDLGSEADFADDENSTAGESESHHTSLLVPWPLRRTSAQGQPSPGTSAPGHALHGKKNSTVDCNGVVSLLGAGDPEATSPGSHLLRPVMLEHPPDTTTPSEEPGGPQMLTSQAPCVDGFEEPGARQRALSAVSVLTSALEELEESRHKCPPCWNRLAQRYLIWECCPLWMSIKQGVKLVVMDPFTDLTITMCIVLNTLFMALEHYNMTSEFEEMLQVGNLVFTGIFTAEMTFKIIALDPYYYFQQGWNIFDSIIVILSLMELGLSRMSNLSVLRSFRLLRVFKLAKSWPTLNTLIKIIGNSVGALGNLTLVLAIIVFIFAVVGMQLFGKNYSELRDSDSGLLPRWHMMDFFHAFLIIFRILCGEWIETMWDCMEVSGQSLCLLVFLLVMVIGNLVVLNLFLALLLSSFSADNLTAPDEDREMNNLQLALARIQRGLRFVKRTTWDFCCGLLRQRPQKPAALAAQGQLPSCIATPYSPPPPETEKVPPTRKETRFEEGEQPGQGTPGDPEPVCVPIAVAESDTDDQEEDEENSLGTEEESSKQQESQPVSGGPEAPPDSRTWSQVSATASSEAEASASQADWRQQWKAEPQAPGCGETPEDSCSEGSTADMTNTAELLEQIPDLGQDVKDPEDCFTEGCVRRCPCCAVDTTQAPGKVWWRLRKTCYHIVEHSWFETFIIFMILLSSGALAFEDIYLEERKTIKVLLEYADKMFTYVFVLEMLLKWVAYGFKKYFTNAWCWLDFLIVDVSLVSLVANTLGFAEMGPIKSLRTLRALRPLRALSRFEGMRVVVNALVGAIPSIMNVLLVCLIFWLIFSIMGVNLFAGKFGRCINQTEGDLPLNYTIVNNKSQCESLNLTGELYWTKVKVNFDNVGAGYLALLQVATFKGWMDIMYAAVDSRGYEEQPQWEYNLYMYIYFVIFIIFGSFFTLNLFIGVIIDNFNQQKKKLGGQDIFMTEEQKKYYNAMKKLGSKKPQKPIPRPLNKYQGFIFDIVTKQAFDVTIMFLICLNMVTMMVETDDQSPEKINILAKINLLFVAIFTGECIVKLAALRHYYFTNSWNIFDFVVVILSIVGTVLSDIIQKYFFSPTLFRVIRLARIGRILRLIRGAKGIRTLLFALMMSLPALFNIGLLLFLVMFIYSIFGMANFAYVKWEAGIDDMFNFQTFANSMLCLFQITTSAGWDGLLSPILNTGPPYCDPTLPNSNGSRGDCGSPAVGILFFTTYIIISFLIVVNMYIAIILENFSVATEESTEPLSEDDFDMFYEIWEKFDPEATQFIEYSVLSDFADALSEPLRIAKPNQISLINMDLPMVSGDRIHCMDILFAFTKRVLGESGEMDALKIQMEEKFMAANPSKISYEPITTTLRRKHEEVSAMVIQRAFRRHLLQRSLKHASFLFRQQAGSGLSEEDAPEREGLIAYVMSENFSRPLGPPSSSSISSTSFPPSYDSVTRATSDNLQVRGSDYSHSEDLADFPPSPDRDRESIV

Row | Compound | IC50 [1] [nM] | IC50 [2] [nM] | IC50 [3] [nM]
1 | CCCC[C@@H]1NC(=O)[C@H](C)NC(=O)CNC(=O)[C@H](CC(C)C)NC(=O)[C@@H](NC(=O)[C@@H](N)CC(=O)O)CSSC[C@@H]2NC(=O)[C@@H]3CSSC[C@@H](C(=O)N[C@@H](CCCCN)C(=O)N[C@@H](Cc4ccc(O)cc4)C(=O)N[C@H](C(=O)N[C@@H](Cc4ccccc4)C(N)=O)C(C)C)NC(=O)[C@H](Cc4c[nH]c5ccccc45)NC(=O)[C@H](CCCCN)NC(=O)[C@H](Cc4cnc[nH]4)NC(=O)[C@H]([C@@H](C)O)NC(=O)[C@H](CCCNC(=N)N)NC(=O)[C@H](CO)NC(=O)[C@H](CSSC[C@H](NC(=O)[C@H](CCCCN)NC(=O)[C@H](CCCNC(=N)N)NC1=O)C(=O)N[C@@H]([C@@H](C)CC)C(=O)N1CCC[C@H]1C(=O)N[C@@H](CC(=O)O)C(=O)N[C@@H](CC(N)=O)C(=O)N[C@@H](CC(=O)O)C(=O)N[C@@H](CCCCN)C(=O)N3)NC(=O)[C@H](C(C)C)NC(=O)[C@H](CC(C)C)NC(=O)[C@H](CC(N)=O)NC(=O)[C@@H]1CCCN1C(=O)[C@H](CCCNC(=N)N)NC2=O [compound 721] | 45000 | 410 | 150
2 | CC(C)C[C@@H]1NC(=O)[C@H](C)NC(=O)CNC(=O)[C@H](CC(C)C)NC(=O)[C@@H](NC(=O)[C@@H](N)CC(=O)O)CSSC[C@@H]2NC(=O)[C@@H]3CSSC[C@@H](C(=O)N[C@@H](CCCCN)C(=O)N[C@@H](Cc4ccc(O)cc4)C(=O)N[C@H](C(=O)N[C@@H](Cc4ccccc4)C(N)=O)C(C)C)NC(=O)[C@H](Cc4c[nH]c5ccccc45)NC(=O)[C@H](CCCCN)NC(=O)[C@H](Cc4c[nH]cn4)NC(=O)[C@H]([C@@H](C)O)NC(=O)[C@H](CCCNC(=N)N)NC(=O)[C@H](CO)NC(=O)[C@H](CSSC[C@H](NC(=O)[C@H](CCCCN)NC(=O)[C@H](CCCNC(=N)N)NC1=O)C(=O)N[C@@H](CCC(=O)O)C(=O)N1CCC[C@H]1C(=O)N[C@@H](CC(=O)O)C(=O)N[C@@H](CC(N)=O)C(=O)N[C@@H](CC(=O)O)C(=O)N[C@@H](CCCCN)C(=O)N3)NC(=O)[C@H](C(C)C)NC(=O)[C@H](CC(C)C)NC(=O)[C@H](CC(N)=O)NC(=O)[C@@H]1CCCN1C(=O)[C@H](CCCNC(=N)N)NC2=O [compound 723] | > 50000 | 1200 | 380
3 | CC(C)C[C@@H]1NC(=O)[C@@H](NC(=O)[C@@H](N)CC(=O)O)CSSC[C@@H]2NC(=O)[C@@H]3CSSC[C@@H](C(=O)N[C@@H](CCCCN)C(=O)N[C@@H](Cc4ccc(O)cc4)C(=O)N[C@H](C(=O)N[C@@H](Cc4ccccc4)C(N)=O)C(C)C)NC(=O)[C@H](Cc4c[nH]c5ccccc45)NC(=O)[C@H](CCCCN)NC(=O)[C@H](Cc4c[nH]cn4)NC(=O)[C@H]([C@@H](C)O)NC(=O)[C@H](CCCNC(=N)N)NC(=O)[C@H](CO)NC(=O)[C@H](CSSC[C@H](NC(=O)[C@H](CCCCN)NC(=O)[C@H](CCCNC(=N)N)NC(=O)[C@H](Cc4ccccc4)NC(=O)[C@H](C)NC(=O)CNC1=O)C(=O)N[C@@H](CCC(=O)O)C(=O)N1CCC[C@H]1C(=O)N[C@@H](CC(=O)O)C(=O)N[C@@H](CC(N)=O)C(=O)N[C@@H](CC(=O)O)C(=O)N[C@@H](CCCCN)C(=O)N3)NC(=O)[C@H](C(C)C)NC(=O)[C@H](CC(C)C)NC(=O)[C@H](CC(N)=O)NC(=O)[C@@H]1CCCN1C(=O)[C@H](CCCNC(=N)N)NC2=O [compound 724] (H-DCLGAFRKCEPDNDKCCRPNLVCSRTHKWCKYVF-NH2; disulfide 2-17, 9-23, 16-30) | 36000 | 320 | 380
4 | CC[C@H](C)[C@@H]1NC(=O)[C@@H]2CSSC[C@@H]3NC(=O)[C@H](C(C)C)NC(=O)[C@H](CC(C)C)NC(=O)[C@H](CC(N)=O)NC(=O)[C@@H]4CCCN4C(=O)[C@H](CCCNC(=N)N)NC(=O)[C@H](CSSC[C@H](NC(=O)[C@@H](N)CC(=O)O)C(=O)N[C@@H](CC(C)C)C(=O)NCC(=O)N[C@@H](C)C(=O)N[C@@H](CC(C)C)C(=O)N[C@@H](CCCNC(=N)N)C(=O)N[C@@H](CCCCN)C(=O)N2)NC(=O)[C@H](CSSC[C@@H](C(=O)N[C@@H](CCCCN)C(=O)N[C@@H](Cc2ccc(O)cc2)C(=O)N[C@H](C(=O)N[C@@H](Cc2ccccc2)C(N)=O)C(C)C)NC(=O)[C@H](Cc2c[nH]c4ccccc24)NC(=O)[C@H](CCCCN)NC(=O)[C@H](Cc2c[nH]cn2)NC(=O)[C@H]([C@@H](C)O)NC(=O)[C@H](CCCNC(=N)N)NC(=O)[C@H](CO)NC3=O)NC(=O)[C@H](CCCCN)NC(=O)[C@H](CC(=O)O)NC(=O)[C@H](CC(N)=O)NC(=O)[C@H](CCC(=O)O)NC(=O)[C@@H]2CCCN2C1=O [compound 726] | > 50000 | 580 | 350
5 | CC[C@H](C)[C@@H]1NC(=O)[C@@H]2CSSC[C@@H]3NC(=O)[C@H](C(C)C)NC(=O)[C@H](CC(C)C)NC(=O)[C@H](CC(N)=O)NC(=O)[C@@H]4CCCN4C(=O)[C@H](CCCNC(=N)N)NC(=O)[C@H](CSSC[C@H](NC(=O)[C@@H](N)CC(=O)O)C(=O)N[C@@H](CC(C)C)C(=O)NCC(=O)N[C@@H](C)C(=O)N[C@@H](CC(C)C)C(=O)N[C@@H](CCCNC(=N)N)C(=O)N[C@@H](CCCCN)C(=O)N2)NC(=O)[C@H](CSSC[C@@H](C(=O)N[C@@H](CCCCN)C(=O)N[C@@H](Cc2ccc(O)cc2)C(=O)N[C@H](C(=O)N[C@@H](Cc2ccccc2)C(N)=O)C(C)C)NC(=O)[C@H](Cc2c[nH]c4ccccc24)NC(=O)[C@H](CCC(=O)O)NC(=O)[C@H](Cc2c[nH]cn2)NC(=O)[C@H]([C@@H](C)O)NC(=O)[C@H](CCCNC(=N)N)NC(=O)[C@H](CO)NC3=O)NC(=O)[C@H](CCCCN)NC(=O)[C@H](CC(=O)O)NC(=O)[C@H](CC(N)=O)NC(=O)[C@H](CC(=O)O)NC(=O)[C@@H]2CCCN2C1=O [compound 728] | 43000 | 6600 | 1600
6 | CC[C@H](C)[C@@H]1NC(=O)[C@@H]2CSSC[C@@H]3NC(=O)[C@H](C(C)C)NC(=O)[C@H](CC(C)C)NC(=O)[C@H](CC(N)=O)NC(=O)[C@@H]4CCCN4C(=O)[C@H](CCCNC(=N)N)NC(=O)[C@H](CSSC[C@H](NC(=O)[C@@H](N)CC(=O)O)C(=O)N[C@@H](CC(C)C)C(=O)NCC(=O)N[C@@H](C)C(=O)N[C@@H](Cc4ccccc4)C(=O)N[C@@H](CCCNC(=N)N)C(=O)N[C@@H](CCCCN)C(=O)N2)NC(=O)[C@H](CSSC[C@@H](C(=O)N[C@@H](CCCCN)C(=O)N[C@@H](Cc2ccc(O)cc2)C(=O)N[C@H](C(=O)N[C@@H](Cc2ccccc2)C(N)=O)C(C)C)NC(=O)[C@H](Cc2c[nH]c4ccccc24)NC(=O)[C@H](CCC(=O)O)NC(=O)[C@H](Cc2c[nH]cn2)NC(=O)[C@H]([C@@H](C)O)NC(=O)[C@H](CCCNC(=N)N)NC(=O)[C@H](CO)NC3=O)NC(=O)[C@H](CCCCN)NC(=O)[C@H](CC(=O)O)NC(=O)[C@H](CC(N)=O)NC(=O)[C@H](CC(=O)O)NC(=O)[C@@H]2CCCN2C1=O [compound 729] (H-DCLGAFRKCIPDNDKCCRPNLVCSRTHEWCKYVF-NH2; disulfide 2-17, 9-23, 16-30) | 48000 | 1800 | 1100
